How the values were obtained:
[1] = tested on: anti-OVA IgM and IgG antibodies; test: OVA evaluation system: adjuvant activity in antibody titer in mice; type: in vivo; settings: for adjuvant effect among bisphosphonic acid compounds / adjuvant effect vs 8 commercially available bisphosphonic acid compounds: 100 ug; for adjuvant effect among TH-Z80 series: intramuscular, OVA
Method: OVA evaluation system was used to determine adjuvant activity in antibody titer.
Mice of C57B/6 strain were used. The mice in the experimental group were injected with the obtained mixture of each of the statins and OVA antigen through soles injection, with 20 μl for each mouse. The mice in the control group were injected with a 1:1 mixture of PBS or DMSO (10 μl) and 10 μl OVA antigen (PBS or DMSO is 10 μl, respectively, and the antigen is 10 μl) through soles injection, with 20 μl for each mouse. On Day 7 and Day 14 after immunization, blood was taken from the mice's orbits, with 100 μl was taken from each mouse. The obtained blood was left at 4° C. overnight, and centrifuged at 6000 rpm for 8 min. The supernatant serum was removed and the titers of anti-OVA IgM and IgG antibodies in the serum were determined.
Test of the OVA antibody titer: The OVA protein was diluted to a concentration of 2 μg/ml with a carbonate solution of pH 9.6, coated in a 96-well ELISA plate at 50 μl per well, and left at 4° C. overnight. The ELISA plate was washed five times with PBS containing 0.05% Tween 20, blocked with 1% BSA solution at 200 μl per well, and incubated at room temperature for 2 h. The ELISA plate was washed five times with PBST (Phosphate Buffered Saline with Tween), a 2-fold serial dilution of the mouse serum after immunized with OVA was added at 50 μl per well and incubated at room temperature for 2 h. After the ELISA plate was washed five times with PBST, HRP (horseradish peroxidase)-labeled goat-anti-mouse IgM or IgG antibody was added and incubated at room temperature for 45 min. The ELISA plate was washed five times with PBST, and a color developing solution of sodium citrate OPD (o-phenylenediamine) was added. After 10 min of color development in the dark, sulfuric acid was added to terminate the reaction. The reading was performed with ELIASA OD490. The maximum serum dilution factor, when the ratio of light absorptions of the experimental group to the control group was >2.0, was the titer of the anti-OVA antibody in the serum.
Each test compound was formulated at a concentration of 2 mg/ml and the concentration of OVA antigen was 2 mg/ml. Each compound was mixed with OVA at 1:1. Each C57B/6 mouse in the experimental group was injected with 100 μl of the mixture (containing 50 μl of the antigen and 50 μl of the compound) by intramuscular injection at the right thigh. On Day 7 and Day 14 after immunization, blood was taken from the mice's orbit, and 100 μl was taken for each mouse. The obtained blood was allowed to stand at 4° C. overnight, and centrifuged at 6000 rpm for 8 min. The supernatant serum was removed, and the titers of anti-OVA IgM and IgG antibodies in the serum were determined.
Method: each of the test compounds (the 10 bisphosphonates as described above) was mixed with the OVE antigen at 1:1, and the concentrations of bisphosphonic acid and OVA were both 10 mg/ml. Mice of C57B/6 strain were used. The mice in the experimental group were injected with the mixture of each of the test compounds and OVA antigen through soles injection, with 20 μl for each mouse, and wherein the amounts of OVA antigen and each of the test compounds were both 100 ug. The mice in the control group were injected with a 1:1 mixture of […] and 10 μl OVA antigen through sole injection. On Day 7 and Day 14 after immunization, blood was taken from the mice's orbits, and 100 μl was taken from each mouse.
The obtained blood was left at 4° C. overnight, and centrifuged at 6000 rpm for 8 min. The supernatant serum was removed, and the titers of anti-OVA IgM and IgG antibodies in the serum were determined.
Method: TH-Z144 and TH-Z145 were prepared at the concentration of 10 mg/ml, the concentration of OVA antigen was also 10 mg/ml, and the compound and the antigen were mixed at 1:1. Mice of C57B/6 strain were used.

[2] = tested on: anti-OVA IgM and IgG antibodies; test: Rescue experiment of GGPP and GGOH on adjuvant activity; type: in vivo, mice; settings: for effect of GGPP and GGOH on adjuvant effects: GGPP and GGOH added; for IgG and IgM antibody titers vs PBS control: without addition of GGPP or GGOH
Method: In particular, we investigated the effect of GGOH and GGPP on the adjuvant activity of simvastatin (HMG-COA reductase inhibitor), TH-Z93 (FPPS inhibitor), and TH-Z145 (GGPPS inhibitor).
Method: Simvastatin, TH-Z93 and TH-Z145 were formulated at a concentration of 10 mg/ml; the concentration of OVA antigen was 20 mg/ml; and GGOH and GGPP were formulated into a series of solutions at concentrations of 200 mg/ml, 100 mg/ml, 40 mg/ml and 20 mg/ml, respectively. For the experimental group, on the one hand, titers of antibodies were measured when immunization was performed without adding GGOH or GGPP while only mixing 10 μl of test compound and 5 μl of OVA antigen. On the other hand, titers of antibodies were measured when immunization was performed after adding GGOH or GGPP; specifically, 10 μl of test compound, 5 μl of OVA antigen and 5 μl of each concentration of GGOH or GGPP (total volume of 20 μl) were mixed and used for immunization in mice by injection at the sole of the right feet. Mice in the control group were treated with PBS and the antigen only, without addition of test compounds and GGOH or GGPP. On Day 7 and Day 14 after immunization, blood was taken from the mice's orbit, and 100 μl was taken for each mouse. The obtained blood was left at 4° C. overnight. The serum was separated, and titers of anti-OVA IgM and IgG antibodies in the serum were determined.

[3] = bisphosphonic acids 100 ug with OVA, soles injection, Day 7 and Day 14

Row | Compound | effect of GGPP and GGOH on adjuvant effects [2] | IgG and IgM antibody titers vs PBS control [2] | adjuvant effect among TH-Z80 series [1] | further results
1 | (2-(3-(octyloxy)phenyl)ethane-1,1-diyl)bisphosphonic acid [TH-Z145] | effectively inhibit adjuvant effects | significantly higher | – | IgM and IgG antibody titers vs PBS control ([1]; GGPPS inhibitors 100 μg with OVA, right sole, Day 7 and Day 14): significantly higher titers
2 | CCC(C)(C)C(=O)O[C@H]1C[C@@H](C)C=C2C=C[C@H](C)[C@H](CC[C@@H]3C[C@@H](O)CC(=O)O3)[C@H]21 [simvastatin, reference compound] | effectively inhibit adjuvant effects | significantly higher | – | adjuvant effect among statin drugs ([1]; statins with OVA, soles injection): most significant adjuvant effects; IgM and IgG antibody titers vs PBS or DMSO control ([1]; statins with OVA, soles injection, Day 7 and Day 14): significantly higher titers
3 | CCCCCCOc1ccnc(NC(P(=O)(O)O)P(=O)(O)O)c1 [TH-Z93, (((4-(hexyloxy)pyridin-2-yl)amino)methylene)bisphosphonic acid] | effectively inhibit adjuvant effects | significantly higher | – | adjuvant effect among bisphosphonic acid compounds ([1]; soles injection): most significant adjuvant effects; adjuvant effect vs 8 commercially available bisphosphonic acid compounds ([1]; soles injection): much higher than any of the 8 commercially available bisphosphonic acid compounds; IgM and IgG antibody titers vs PBS control [1, 3]: more than five times higher
4 | CCCCCCCCCOc1ccc2c(c1)ncn2CC(O)(P(=O)(O)O)P(=O)(O)O [TH-Z153] | – | – | most significant adjuvant effects | –
5 | CCCCCCOc1ccc2c(c1)ncn2CC(O)(P(=O)(O)O)P(=O)(O)O [TH-Z80] | – | – | most significant adjuvant effects | adjuvant effect among bisphosphonic acid compounds ([1]; soles injection): most significant adjuvant effects; adjuvant effect vs 8 commercially available bisphosphonic acid compounds ([1]; soles injection): much higher than any of the 8 commercially available bisphosphonic acid compounds; IgM and IgG antibody titers vs PBS control [1, 3]: more than five times higher; antibody titers vs PBS control at different immunization sites ([1]; soles, subcutaneous, muscle, abdominal and nasal mucosa): significantly increased
6 | CCCCCCCCOc1ccc2c(c1)ncn2CC(O)(P(=O)(O)O)P(=O)(O)O [TH-Z81] | – | – | most significant adjuvant effects | –
7 | CCCCCCCOc1ccc2c(c1)ncn2CC(O)(P(=O)(O)O)P(=O)(O)O [TH-Z152] | – | – | most significant adjuvant effects | –

Reference: US20250367283A1, “MEVALONATE PATHWAY INHIBITOR AS HIGHLY-EFFICIENT VACCINE ADJUVANT” (Tsinghua University, priority 2015, published 2025)
